Test results published in patent US8299052B2, “Pharmaceutical compositions and methods for improved bacterial eradication” (Shionogi Inc., priority 2006, dated 2012).
In brackets after ≈: the same amount, converted by molar mass. Where two headings read alike, the source gives them in different places. Marks after values point to notes of the source that are not given here.

Assays:
[1] = system: Streptococcus pyogenes; conditions: Omnicef label, Tack et al, AAC 1998; cited from earlier work
[2] = system: Streptococcus pyogenes; test: Daily T>MIC and Total T>MIC calculated from pharmacokinetic model (WinNonlin) plasma profiles
Experimental: The Daily T>MIC must also be calculated for each different regimen, and at the relevant MIC. This information was not presented in any of the articles and so it was calculated by Applicants. The Daily T>MIC is calculated for each regimen by creating a plasma profile from pharmacokinetic data published in the literature. Prior to creating the plasma profile a pharmacokinetic model is developed from plasma profiles from one or more doses reported in the literature. […] The models are industry standard compartmental models, generated with WinNonlin, a common program used in the pharmaceutical industry for pharmacokinetic analysis and modeling. Once the Daily T>MIC for each regimen has been calculated, the Total T>MIC is calculated by multiplying the Daily T>MIC by the Duration of Therapy (Days Tx in the table). Thus a composite parameter, Total T>MIC, is constructed that includes both factors relevant to eradication of Streptococcus pyogenes by a given regimen. The equation can then be used to determine the Total T>MIC required to achieve eradication rates ≧85% (or any other desired eradication rate).

[3] = system: Streptococcus pyogenes; conditions: cited from earlier work
[4] = system: Streptococcus pyogenes; test: MIC-90 of penicillin VK for Streptococcus pyogenes; type: cell-based; conditions: where study did not report MIC, assumed equal to MIC determined in Applicants' Phase III trial
From the text: The information in Table 1 was collected from several studies published in the literature. Information such as drug, regimen, Days Tx and Eradication can be taken directly from the literature articles. Information such as the MIC will often have been determined as part of the study and may be reported in the article, but in many cases it may not have been determined or reported.

Daily T > MIC ([2]; 250 QID, MIC-90 0.015): 55.30% | Daily T > MIC ([2]; 250 QID, MIC-90 0.03): 46.40% | Daily T > MIC ([2]; 250 TID, MIC-90 0.015): 39.29% | Daily T > MIC ([2]; 500 TID, MIC-90 0.015): 48.10% | Daily T > MIC ([2]; 600 TID, MIC-90 0.015): 49.80% | Daily T > MIC ([2]; 750 QD, MIC-90 0.015): 17.30% | Daily T > MIC ([2]; 800 BID, MIC-90 0.015): 35.00% | MIC90 [4]: 0.015 µg/mL (≈ 0.0428 µM)
SMILES: CC1(C)S[C@@H]2[C@H](NC(=O)COc3ccccc3)C(=O)N2[C@H]1C(=O)O [Pen VK, penicillin VK]
MIC-90 [1]: 0.03* μg/mL | % Erad ([3]; 250 QID, Days Tx 10, MIC-90 0.03, Omnicef label, Tack et al, AAC 1998): 82% | % Erad ([3]; 250 QID, Days Tx 10, McCarty 1993): 100% | % Erad ([3]; 250 QID, Days Tx 10, Mullen 992): 85.5% | % Erad ([3]; 250 TID, Days Tx 5, Gerber et al, AJDC 1987): 92% | % Erad ([3]; 250 TID, Days Tx 10, Gerber et al, AJDC 1987): 96% | % Erad ([3]; 500 TID, Days Tx 0 (spontaneous eradication), Zwart et al. BMJ 2000): 7% | % Erad ([3]; 500 TID, Days Tx 3, Zwart et al, BMJ 2000): 41% | % Erad ([3]; 500 TID, Days Tx 7, Zwart et al, BMJ 2000): 72% | % Erad ([3]; 500 TID, Days Tx 10, Ketek SBA, Norrby et al, Scand J Infect Dis 2001): 89% | % Erad ([3]; 600 TID, Days Tx 10, Carbon et al, J Antimicrob Chemother 1995): 86% | % Erad ([3]; 750 QD, Days Tx 10, Gerber et al, AJDC 1989): 82% | % Erad ([3]; 800 BID, Days Tx 5, Stromberg et al, Scand J Infect Dis 1988): 73% | % Erad ([3]; 800 BID, Days Tx 10, Stromberg et al, Scand J Infect Dis 1988): 94%
